# Several values for one entry are separate records, joined by “and”; a condition that tells them apart may be missing. Identical values can stand only once.
# Legend:
# CXCR2 [1] = biological target: T1, CXCR2 (Homo sapiens (Human), UniProt P25025); test: Agonist activity: intracellular calcium release in human neutrophils in the absence of GROα; assay type: cell-based; conditions: for EC50: human neutrophils, agonist calcium release; for Magnitude of Agonist Response (% of GROα only Control): relative to the response to 25 nM GROα
# T1 sequence (P25025 whole entry): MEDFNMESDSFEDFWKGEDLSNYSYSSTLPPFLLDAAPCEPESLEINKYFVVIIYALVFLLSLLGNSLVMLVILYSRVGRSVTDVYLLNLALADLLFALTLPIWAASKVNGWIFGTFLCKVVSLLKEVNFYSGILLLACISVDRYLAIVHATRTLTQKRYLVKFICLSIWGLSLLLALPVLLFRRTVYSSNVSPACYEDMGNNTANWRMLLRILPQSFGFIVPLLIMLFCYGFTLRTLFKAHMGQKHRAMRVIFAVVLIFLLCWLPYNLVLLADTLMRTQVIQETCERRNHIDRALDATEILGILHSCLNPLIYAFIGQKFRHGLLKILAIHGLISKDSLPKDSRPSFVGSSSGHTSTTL
# Experimental: (§1) In Tables 1-5, the IC50 or EC50 values were determined using the following assay. This assay measures intracellular calcium release via fluorescence as an indication of CXCR2 receptor activation by the physiologic agonist GROα. The assay is a Ca^2+ mobilization assay that measures changes in intracellular Ca^2+ with a FlexStation II scanning fluorometer using a FLIPR-3 Calcium Assay Kit (Molecular Devices, Sunnyvale, Calif.). The procedure is as follows:
# (§2) 9. The maximum change in fluorescence, expressed in arbitrary units over baseline (Max-Min) was used to determine the GROα response. […] Therapeutic Activity
# (§3) The maximum change in fluorescence, expressed in arbitrary units over baseline (Max-Min), was used to determine the GROα response.
# Intracellular calcium release is a hallmark of CXCR2 activation by endogenous agonists, such as GROα and IL-8.
# CXCR2 [2] = biological target: T1, CXCR2; test: Inhibition of GROα-mediated intracellular calcium release in human neutrophils (FLIPR-3 Ca2+ mobilization); assay type: cell-based; conditions: human neutrophils, 25 nM GROα; read-out: IC50
# Experimental: as §1
# 1. Human neutrophils were suspended in HBSS^− (without Ca^2+ and Mg^2+) containing 10 mM HEPES and FLIPR Calcium 3 dye (3.1×10^7 cells in total volume 1.7 mL).
# 2. […] As controls, 2 μL of DMSO (1% final concentration) were added to other 2 tubes.
# 3. Cells were incubated for 30 min at 37° C.
# 4. After dye loading, tubes were centrifuged at 6,000 rpm for 1 min, supernatant was removed and cell pellet was re-suspended in 200 μL of HBSS^+ (with Ca^2+ and Mg^2+) containing 10 mM HEPES.
# 5. The compound or DMSO (control) was added again at the same concentrations that were used during cell loading.
# 6. The cell suspension was aliquoted into a 96-well Reading Plate (Corning) in a volume of 90 μL (10^5 cells/well). The Compound Plate contained physiologic agonist (GROα in HBSS^−) or HBSS^− (control).
# as §2
# Briefly, human neutrophils were suspended in HBSS^− (without Ca^2+ and Mg^2+) containing 10 mM HEPES and FLIPR Calcium 3 dye (3.1×10^7 cells in total volume 1.7 mL). […] As controls, 2 μL of DMSO (1% final concentration) were added to 2 other tubes. Cells were incubated for 30 min at 37° C. After dye loading, tubes were centrifuged at 6,000 rpm for 1 min, supernatant was removed and the cell pellet was re-suspended in 200 μL of HBSS^+ (with Ca^2+ and Mg^2+) containing 10 mM HEPES. The test compound or DMSO (control) was added again at the same concentrations that were used during cell loading. The cell suspension was aliquoted into a 96-well Reading Plate (Corning) in a volume of 90 μL (10^5 cells/well). The Compound Plate contained agonist (GROα in HBSS^−) or HBSS^− (control).
# as §3
EC50 (CXCR2 [1]),Magnitude of Agonist Response (% of GROα only Control) (CXCR2 [1]) [%],IC50 (CXCR2 [2]) [µM],SMILES
2.4 µM,60,–,O=C(Nc1ccc(F)cc1)c1ccc(SCc2ccccc2O)nc1 [Compound 13]
1.8 µM and 1.81 µM,15,0.028 ± 0.006,"O=C(Nc1ccc(F)cc1)c1ccc(SCc2cc(OC(F)(F)F)ccc2O)nc1 [Compound 14, 6-(2-hydroxy-5-trifluoromethoxy-benzylsulfanyl)-N-(4-fluoro-phenyl)-nicotinamide]"
–,–,> 10,O=C(Nc1ccc(F)cc1)c1ccc(SCc2cc3nsnc3cc2Cl)nc1 [Compound 63]
–,–,> 10,O=C(CSc1ccc(C(=O)Nc2ccc(F)cc2)cn1)c1cccc(C(F)(F)F)c1 [Compound 109]
–,–,> 5,Cc1nc(-c2ccc(Cl)cc2)sc1C(=O)CSc1ccc(C(=O)Nc2ccc(F)cc2)cn1 [Compound 147]
–,–,> 5,O=C(Nc1ccc(F)cc1)c1ccc(SCCCN2C(=O)c3ccc([N+](=O)[O-])cc3C2=O)nc1 [Compound 58]
–,–,1.81 ± 0.52,O=C(Nc1ccc(F)cc1)c1ccc(SCC(=O)c2cc3ccccc3s2)nc1 [Compound 128]
–,–,> 10,O=C(Nc1ccc(F)cc1)c1ccc(SCC(=O)c2ccc(-c3ccccc3)s2)nc1 [Compound 123]
–,–,> 5,O=C(CSc1ccc(C(=O)Nc2ccc(F)cc2)cn1)c1ccc(N2CCOCC2)cc1 [Compound 99]
–,–,> 5,CC(=O)Oc1ccccc1CSc1ccc(C(=O)Nc2ccc(F)cc2)cn1 [Compound 13a]
–,–,> 10,Cc1ccc(C(=O)CSc2ccc(C(=O)Nc3ccc(F)cc3)cn2)cc1 [Compound 85]
–,–,> 10,O=C(Nc1ccc(F)cc1)c1ccc(SCCCCCCN2C(=O)c3ccc([N+](=O)[O-])cc3C2=O)nc1 [Compound 60]
–,–,> 10,O=C(Nc1ccc(F)cc1)c1ccc(SCC(=O)c2coc3ccccc23)nc1 [Compound 118]
–,–,0.078 ± 0.018,O=C(c1ccc(SCc2ccccc2B(O)O)nc1)N(Cc1ccccn1)c1ccc(F)cc1 [Compound 155]
–,–,0.194 ± 0.052,O=C(CSc1ccc(C(=O)Nc2ccc(F)cc2)cn1)c1ccc2c(c1)OCCO2 [Compound 140]
–,–,> 10,COc1ccc(C(=O)CSc2ccc(C(=O)Nc3ccc(F)cc3)cn2)cc1 [Compound 100]

SMILES,EC50 (CXCR2 [1]),Magnitude of Agonist Response (% of GROα only Control) (CXCR2 [1]) [%],IC50 (CXCR2 [2]) [µM]
COC(=O)c1cccc(CSc2ccc(C(=O)Nc3ccc(F)cc3)cn2)c1 [Compound 22],–,–,> 5
